Data as given in ChEMBL document CHEMBL3734736, “A selective delta opioid receptor antagonist based on a stilbene core” (Bioorg Med Chem Lett, 2015).
The source made the active and inactive calls. No cut-off for these calls is given here.

Columns and labels:
[1] = target: Mu-type opioid receptor (Homo sapiens) (UniProt P35372); experiment: Agonist activity at human mu opioid receptor over-expressed in CHO cell membrane after 1 hr by [35S]GTPgammaS binding assay; type: functional, cell membranes
[2] = target: Mu-type opioid receptor (Homo sapiens) (UniProt P35372); experiment: Antagonist activity at human mu opioid receptor over-expressed in CHO cell membrane assessed as inhibition of DAMGO-induced [35S]GTPgammaS binding at 10 uM after 1 hr by scintillation counting method; type: functional, cell membranes
[3] = target: T1, Delta-type opioid receptor (Homo sapiens, UniProt P41143); experiment: Antagonist activity at human delta opioid receptor over-expressed in CHO cell membrane assessed as inhibition of DPDPE-induced [35S]GTPgammaS binding at 10 uM after 1 hr by scintillation counting method; type: functional, cell membranes
[4] = target: T1, Delta-type opioid receptor; experiment: Agonist activity at human delta opioid receptor over-expressed in CHO cell membrane after 1 hr by [35S]GTPgammaS binding assay; type: functional, cell membranes
CHO [5] = experiment: Selectivity ratio, ratio of Ke for human mu opioid receptor over-expressed in CHO cell membrane to Ke for human delta opioid receptor over-expressed in CHO cell membrane; type: cell-based
CHO [6] = experiment: Selectivity ratio, ratio of Ke for human kappa opioid receptor over-expressed in CHO cell membrane to Ke for human delta opioid receptor over-expressed in CHO cell membrane; type: cell-based
[7] = target: Kappa-type opioid receptor (Homo sapiens) (UniProt P41145); experiment: Agonist activity at human kappa opioid receptor over-expressed in CHO cell membrane after 1 hr by [35S]GTPgammaS binding assay; type: functional, cell membranes
[8] = target: Kappa-type opioid receptor (Homo sapiens) (UniProt P41145); experiment: Antagonist activity at human kappa opioid receptor over-expressed in CHO cell membrane assessed as inhibition of U69,593-induced [35S]GTPgammaS binding at 10 uM after 1 hr by scintillation counting method; type: functional, cell membranes

Mu-type opioid receptor (Homo sapiens), sequence (P35372 whole entry): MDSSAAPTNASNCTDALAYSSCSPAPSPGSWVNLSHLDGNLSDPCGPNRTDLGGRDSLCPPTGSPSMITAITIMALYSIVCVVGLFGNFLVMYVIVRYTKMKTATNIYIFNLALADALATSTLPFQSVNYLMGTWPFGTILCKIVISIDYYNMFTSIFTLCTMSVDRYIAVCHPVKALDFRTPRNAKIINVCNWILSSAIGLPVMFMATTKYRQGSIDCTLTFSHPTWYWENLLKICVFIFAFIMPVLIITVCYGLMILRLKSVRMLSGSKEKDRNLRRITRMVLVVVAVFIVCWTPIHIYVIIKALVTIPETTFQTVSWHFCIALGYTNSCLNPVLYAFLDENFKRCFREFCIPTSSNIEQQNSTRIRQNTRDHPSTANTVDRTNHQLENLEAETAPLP
T1 sequence (P41143 whole entry): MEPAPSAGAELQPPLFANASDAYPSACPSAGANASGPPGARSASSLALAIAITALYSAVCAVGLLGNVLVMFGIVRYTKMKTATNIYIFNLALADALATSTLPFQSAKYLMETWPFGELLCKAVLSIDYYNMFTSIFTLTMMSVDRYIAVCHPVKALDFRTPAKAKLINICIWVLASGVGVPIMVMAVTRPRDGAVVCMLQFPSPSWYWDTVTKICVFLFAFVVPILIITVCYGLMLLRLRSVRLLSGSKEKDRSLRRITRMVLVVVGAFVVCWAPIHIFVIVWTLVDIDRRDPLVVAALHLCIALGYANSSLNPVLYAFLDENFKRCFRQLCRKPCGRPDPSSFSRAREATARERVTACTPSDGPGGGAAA
Kappa-type opioid receptor (Homo sapiens), sequence (P41145 whole entry): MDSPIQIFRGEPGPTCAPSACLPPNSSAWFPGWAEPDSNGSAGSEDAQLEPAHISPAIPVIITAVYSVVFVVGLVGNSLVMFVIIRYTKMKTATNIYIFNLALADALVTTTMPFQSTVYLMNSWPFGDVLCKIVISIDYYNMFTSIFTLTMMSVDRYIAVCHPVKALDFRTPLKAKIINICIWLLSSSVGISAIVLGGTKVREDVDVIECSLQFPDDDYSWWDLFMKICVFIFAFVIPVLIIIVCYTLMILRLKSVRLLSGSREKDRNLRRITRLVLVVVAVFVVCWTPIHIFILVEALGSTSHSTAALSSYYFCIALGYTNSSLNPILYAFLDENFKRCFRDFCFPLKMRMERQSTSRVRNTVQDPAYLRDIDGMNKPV

COc1cc(/C=C/c2ccc(O)c(O)c2CC=C(C)C)c(C/C=C(\C)CCC=C(C)C)c(OC)c1
Activity [1]: inactive | Ke [2]: > 10 µM | Ke [3]: 0.025 µM | EC50 [4]: 6.6 µM | Ratio Ke (CHO [5]): > 400 | Ratio Ke (CHO [6]): > 400 | Activity [7]: inactive | Ke [8]: > 10 µM
